Experiments:
Nucleic Acid [1] = assay: Binding affinity to Escherichia coli pUC19 DNA assessed as form 2 DNA level at 0.463 mM after 7.08 hrs by agarose gel electrophoresis; type: nucleic-acid assay
Nucleic Acid [2] = assay: Binding affinity to Escherichia coli pUC19 DNA assessed as form 1 DNA level at 0.320 mM after 4.95 hrs by agarose gel electrophoresis; type: nucleic-acid assay
Nucleic Acid [3] = assay: Binding affinity to Escherichia coli pUC19 DNA assessed as form 1 DNA level at 0.175 mM after 13.07 hrs by agarose gel electrophoresis; type: nucleic-acid assay
Nucleic Acid [4] = assay: Binding affinity to Escherichia coli pUC19 DNA assessed as form 1 DNA level at 0.320 mM after 27.33 hrs by agarose gel electrophoresis; type: nucleic-acid assay
Nucleic Acid [5] = assay: Binding affinity to Escherichia coli pUC19 DNA assessed as form 2 DNA level at 0.320 mM after 4.95 hrs by agarose gel electrophoresis; type: nucleic-acid assay
Nucleic Acid [6] = assay: Binding affinity to Escherichia coli pUC19 DNA assessed as form 2 DNA level at 0.463 mM by agarose gel electrophoresis; type: nucleic-acid assay
Nucleic Acid [7] = assay: Binding affinity to Escherichia coli pUC19 DNA assessed as form 1 DNA level at 0.463 mM by agarose gel electrophoresis; type: nucleic-acid assay
Nucleic Acid [8] = assay: Binding affinity to Escherichia coli pUC19 DNA assessed as form 2 DNA level at 0.698 mM after 9.07 hrs by agarose gel electrophoresis; type: nucleic-acid assay
Nucleic Acid [9] = assay: Binding affinity to Escherichia coli pUC19 DNA assessed as form 1 DNA level at 0.175 mM after 23.12 hrs by agarose gel electrophoresis; type: nucleic-acid assay
Nucleic Acid [10] = assay: Binding affinity to Escherichia coli pUC19 DNA assessed as form 2 DNA level at 0.463 mM after 4.42 hrs by agarose gel electrophoresis; type: nucleic-acid assay
Nucleic Acid [11] = assay: Binding affinity to Escherichia coli pUC19 DNA assessed as form 2 DNA level at 0.698 mM after 13.07 hrs by agarose gel electrophoresis; type: nucleic-acid assay
Nucleic Acid [12] = assay: Binding affinity to Escherichia coli pUC19 DNA assessed as form 1 DNA level at 0.463 mM after 4.42 hrs by agarose gel electrophoresis; type: nucleic-acid assay
Nucleic Acid [13] = assay: Binding affinity to Escherichia coli pUC19 DNA assessed as form 1 DNA level at 0.698 mM after 9.07 hrs by agarose gel electrophoresis; type: nucleic-acid assay
Nucleic Acid [14] = assay: Binding affinity to Escherichia coli pUC19 DNA assessed as form 1 DNA level at 0.698 mM after 13.07 hrs by agarose gel electrophoresis; type: nucleic-acid assay
HL-60 [15] = assay: Growth inhibition of human HL60 cells at 10 uM after 72 hrs by MTT assay; type: functional; set-up: scale not given: the % may be the effect or the level left
Nucleic Acid [16] = assay: Binding affinity to Escherichia coli pUC19 DNA assessed as form 2 DNA level at 0.320 mM by agarose gel electrophoresis; type: nucleic-acid assay
Nucleic Acid [17] = assay: Binding affinity to Escherichia coli pUC19 DNA assessed as form 1 DNA level at 0.463 mM after 11.30 hrs by agarose gel electrophoresis; type: nucleic-acid assay
Nucleic Acid [18] = assay: Binding affinity to Escherichia coli pUC19 DNA assessed as form 1 DNA level at 0.175 mM after 9.07 hrs by agarose gel electrophoresis; type: nucleic-acid assay
Nucleic Acid [19] = assay: Binding affinity to Escherichia coli pUC19 DNA assessed as form 1 DNA level at 0.175 mM after 4.95 hrs by agarose gel electrophoresis; type: nucleic-acid assay
HL-60 [20] = assay: Growth inhibition of human HL60 cells at 100 uM after 72 hrs by MTT assay; type: functional; set-up: scale not given: the % may be the effect or the level left
Nucleic Acid [21] = assay: Binding affinity to Escherichia coli pUC19 DNA assessed as form 1 DNA level at 0.320 mM after 13.07 hrs by agarose gel electrophoresis; type: nucleic-acid assay
Nucleic Acid [22] = assay: Binding affinity to Escherichia coli pUC19 DNA assessed as form 2 DNA level at 0.320 mM after 13.07 hrs by agarose gel electrophoresis; type: nucleic-acid assay
Nucleic Acid [23] = assay: Binding affinity to Escherichia coli pUC19 DNA assessed as form 2 DNA level at 0.175 mM after 23.12 hrs by agarose gel electrophoresis; type: nucleic-acid assay
Nucleic Acid [24] = assay: Binding affinity to Escherichia coli pUC19 DNA assessed as form 1 DNA level at 0.698 mM by agarose gel electrophoresis; type: nucleic-acid assay
Nucleic Acid [25] = assay: Binding affinity to Escherichia coli pUC19 DNA assessed as form 1 DNA level at 0.698 mM after 23.12 hrs by agarose gel electrophoresis; type: nucleic-acid assay
HL-60 [26] = assay: Growth inhibition of human HL60 cells at 1000 uM after 72 hrs by MTT assay; type: functional; set-up: scale not given: the % may be the effect or the level left
Nucleic Acid [27] = assay: Binding affinity to Escherichia coli pUC19 DNA assessed as form 1 DNA level at 0.175 mM by agarose gel electrophoresis; type: nucleic-acid assay
Nucleic Acid [28] = assay: Binding affinity to Escherichia coli pUC19 DNA assessed as form 2 DNA level at 0.175 mM by agarose gel electrophoresis; type: nucleic-acid assay
Nucleic Acid [29] = assay: Binding affinity to Escherichia coli pUC19 DNA assessed as form 2 DNA level at 0.320 mM after 9.07 hrs by agarose gel electrophoresis; type: nucleic-acid assay
Nucleic Acid [30] = assay: Binding affinity to Escherichia coli pUC19 DNA assessed as form 1 DNA level at 0.320 mM after 9.07 hrs by agarose gel electrophoresis; type: nucleic-acid assay
Nucleic Acid [31] = assay: Binding affinity to Escherichia coli pUC19 DNA assessed as form 1 DNA level at 0.698 mM after 4.95 hrs by agarose gel electrophoresis; type: nucleic-acid assay
Nucleic Acid [32] = assay: Binding affinity to Escherichia coli pUC19 DNA assessed as form 2 DNA level at 0.175 mM after 4.95 hrs by agarose gel electrophoresis; type: nucleic-acid assay
Nucleic Acid [33] = assay: Binding affinity to Escherichia coli pUC19 DNA assessed as form 2 DNA level at 0.698 mM by agarose gel electrophoresis; type: nucleic-acid assay
Nucleic Acid [34] = assay: Binding affinity to Escherichia coli pUC19 DNA assessed as form 2 DNA level at 0.698 mM after 23.12 hrs by agarose gel electrophoresis; type: nucleic-acid assay
Nucleic Acid [35] = assay: Binding affinity to Escherichia coli pUC19 DNA assessed as form 1 DNA level at 0.463 mM after 15 hrs by agarose gel electrophoresis; type: nucleic-acid assay
HeLa [36] = assay: Growth inhibition of human HeLa cells at 1000 uM after 72 hrs by MTT assay; type: functional; set-up: scale not given: the % may be the effect or the level left
Nucleic Acid [37] = assay: Binding affinity to Escherichia coli pUC19 DNA assessed as form 1 DNA level at 0.463 mM after 7.08 hrs by agarose gel electrophoresis; type: nucleic-acid assay
Nucleic Acid [38] = assay: Binding affinity to Escherichia coli pUC19 DNA assessed as form 2 DNA level at 0.175 mM after 13.07 hrs by agarose gel electrophoresis; type: nucleic-acid assay
HeLa [39] = assay: Growth inhibition of human HeLa cells at 100 uM after 72 hrs by MTT assay; type: functional; set-up: scale not given: the % may be the effect or the level left
Nucleic Acid [40] = assay: Binding affinity to Escherichia coli pUC19 DNA assessed as form 2 DNA level at 0.463 mM after 11.30 hrs by agarose gel electrophoresis; type: nucleic-acid assay
HeLa [41] = assay: Growth inhibition of human HeLa cells at 10 uM after 72 hrs by MTT assay; type: functional; set-up: scale not given: the % may be the effect or the level left
Nucleic Acid [42] = assay: Binding affinity to Escherichia coli pUC19 DNA assessed as form 1 DNA level at 0.320 mM by agarose gel electrophoresis; type: nucleic-acid assay
Nucleic Acid [43] = assay: Binding affinity to Escherichia coli pUC19 DNA assessed as form 2 DNA level at 0.320 mM after 27.33 hrs by agarose gel electrophoresis; type: nucleic-acid assay
Nucleic Acid [44] = assay: Binding affinity to Escherichia coli pUC19 DNA assessed as form 2 DNA level at 0.463 mM after 15 hrs by agarose gel electrophoresis; type: nucleic-acid assay
Nucleic Acid [45] = assay: Binding affinity to Escherichia coli pUC19 DNA assessed as form 2 DNA level at 0.698 mM after 4.95 hrs by agarose gel electrophoresis; type: nucleic-acid assay
Nucleic Acid [46] = assay: Binding affinity to Escherichia coli pUC19 DNA assessed as form 2 DNA level at 0.175 mM after 9.07 hrs by agarose gel electrophoresis; type: nucleic-acid assay

Cl.Cl.NNC1=NCCN1
Activity (Nucleic Acid [1]): 4.78% | Activity (Nucleic Acid [2]): 95% | Activity (Nucleic Acid [3]): 96.9% | Activity (Nucleic Acid [4]): 72.2% | Activity (Nucleic Acid [5]): 5.03% | Activity (Nucleic Acid [6]): 2.43% | Activity (Nucleic Acid [7]): 97.6% | Activity (Nucleic Acid [8]): 4.22% | Activity (Nucleic Acid [9]): 93.9% | Activity (Nucleic Acid [10]): 2.64% | Activity (Nucleic Acid [11]): 7.62% | Activity (Nucleic Acid [12]): 97.4% | Activity (Nucleic Acid [13]): 95.8% | Activity (Nucleic Acid [14]): 92.4% | Activity (HL-60 [15]): 1% | Activity (Nucleic Acid [16]): 3.24% | Activity (Nucleic Acid [17]): 92.9% | Activity (Nucleic Acid [18]): 98.2% | Activity (Nucleic Acid [19]): 98.6% | Activity (HL-60 [20]): 4% | Activity (Nucleic Acid [21]): 92% | Activity (Nucleic Acid [22]): 7.99% | Activity (Nucleic Acid [23]): 6.09% | Activity (Nucleic Acid [24]): 98.5% | Activity (Nucleic Acid [25]): 85.8% | Activity (HL-60 [26]): 57% | Activity (Nucleic Acid [27]): 99.6% | Activity (Nucleic Acid [28]): 0.4% | Activity (Nucleic Acid [29]): 5.87% | Activity (Nucleic Acid [30]): 94.1% | Activity (Nucleic Acid [31]): 97.9% | Activity (Nucleic Acid [32]): 1.43% | Activity (Nucleic Acid [33]): 1.52% | Activity (Nucleic Acid [34]): 14.2% | Activity (Nucleic Acid [35]): 90.3% | Activity (HeLa [36]): 2% | Activity (Nucleic Acid [37]): 95.2% | Activity (Nucleic Acid [38]): 3.07% | Activity (HeLa [39]): 1% | Activity (Nucleic Acid [40]): 7.13% | Activity (HeLa [41]): 1% | Activity (Nucleic Acid [42]): 96.8% | Activity (Nucleic Acid [43]): 27.8% | Activity (Nucleic Acid [44]): 9.67% | Activity (Nucleic Acid [45]): 2.13% | Activity (Nucleic Acid [46]): 1.8%

— ChEMBL document CHEMBL1154064, “Synthesis and DNA cleavage activity of 2-hydrazinyl-1,4,5,6-tetrahydropyrimidine containing hydroxy group” (2009)
